The text below walks through data of PubChem BioAssay (NCI).

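Five concentrations, 48 hours, 96-well plates. The concentration for full growth arrest is given as TGI.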 Bounds are passed on as bounds.

Among the test systems are PC-3 prostate; MALME-3M melanoma; UO-31 renal; SF-539 CNS; OVCAR-8 ovarian; MDA-MB-231 breast; 786-0 renal; IGROV1 ovarian; MCF7 breast; OVCAR-3 ovarian; NCI-H522 lung; U251 CNS; OVCAR-5 ovarian; CCRF-CEM leukemia; HS 578T breast; CAKI-1 renal; SR leukemia; SK-MEL-28 melanoma; MOLT-4 leukemia.
What all share (test): inhibition of tumour cell growth, NCI panel, 48 h

In the case of `O=c1[nH]c(Nc2nc3ccccc3[nH]2)nc(O)c1-c1ccccc1`, the TGI in the experiment on PC-3 prostate, in the experiment on MALME-3M melanoma, with UO-31 renal, in the experiment on SF-539 CNS, in the experiment on OVCAR-8 ovarian and with MDA-MB-231 breast was above 100 µM in each case. In addition, the TGI in the experiment with 786-0 renal, in the experiment with IGROV1 ovarian, with MCF7 breast, in the experiment with OVCAR-3 ovarian, with NCI-H522 lung and in the experiment on U251 CNS was above 100 µM each time. Moreover, the TGI with OVCAR-5 ovarian, in the experiment with CCRF-CEM leukemia, with HS 578T breast, in the experiment on CAKI-1 renal, in the experiment on SR leukemia and in the experiment with SK-MEL-28 melanoma was above 100 µM in each case.
As for `Cc1nc(N)c(N2CCN([N+](=O)[O-])CC2)c(=O)[nH]1`, the TGI in the experiment on PC-3 prostate, in the experiment with MALME-3M melanoma, in the experiment on UO-31 renal, with MOLT-4 leukemia, with SF-539 CNS and with OVCAR-8 ovarian was above 100 µM each time. Besides, the TGI in the experiment with MDA-MB-231 breast, with 786-0 renal, with MCF7 breast, with OVCAR-3 ovarian, in the experiment with NCI-H522 lung and in the experiment on U251 CNS was above 100 µM in each case. Moreover, the TGI in the experiment with OVCAR-5 ovarian, in the experiment with CCRF-CEM leukemia, in the experiment with HS 578T breast, with SR leukemia and in the experiment on SK-MEL-28 melanoma was above 100 µM each time.
On to `CSC(=S)N/N=C(\C)c1ccc(S(=O)(=O)N(C)c2ccccc2)cc1`, for which the TGI was above 100 µM with PC-3 prostate; 22.5 µM with MALME-3M melanoma; above 100 µM in the experiment on UO-31 renal; above 100 µM in the experiment with MOLT-4 leukemia; above 100 µM in the experiment with SF-539 CNS; above 100 µM in the experiment with OVCAR-8 ovarian. For the same molecule, the TGI in the experiment with MDA-MB-231 breast, in the experiment on 786-0 renal, in the experiment on IGROV1 ovarian, with MCF7 breast, with OVCAR-3 ovarian and in the experiment on U251 CNS was above 100 µM each time. Also, the TGI with OVCAR-5 ovarian was above 100 µM; in the experiment on HS 578T breast, 87 µM; in the experiment on CAKI-1 renal it was above 100 µM; with SR leukemia it was above 100 µM; in the experiment with SK-MEL-28 melanoma it was above 100 µM.
As to `Cc1ccc2c(c1)C(=O)C1(Cc3ccccc3C1=O)C2` (stereo not given), the TGI was above 100 µM with PC-3 prostate; above 100 µM in the experiment with MALME-3M melanoma; 39 µM in the experiment on UO-31 renal; above 100 µM in the experiment with MOLT-4 leukemia; above 100 µM with SF-539 CNS; above 100 µM in the experiment on OVCAR-8 ovarian. In addition, the TGI in the experiment on MDA-MB-231 breast, in the experiment with 786-0 renal, in the experiment with IGROV1 ovarian, in the experiment on MCF7 breast, with OVCAR-3 ovarian and in the experiment on NCI-H522 lung was above 100 µM throughout. For the same molecule, the TGI in the experiment on U251 CNS, in the experiment on OVCAR-5 ovarian, in the experiment with CCRF-CEM leukemia, with HS 578T breast, with SR leukemia and in the experiment with SK-MEL-28 melanoma was above 100 µM throughout.
As to `CC(=N/N=C/c1ccccn1)/C(C)=N/N=C(C)/C(C)=N/N=C(C)/C(C)=N/N=C(C)/C(C)=N\N=C\c1ccccn1`, the TGI in the experiment on PC-3 prostate, with MALME-3M melanoma, with UO-31 renal, in the experiment on SF-539 CNS, with OVCAR-8 ovarian and in the experiment with MDA-MB-231 breast was above 100 µM each time. In addition, the TGI in the experiment on 786-0 renal, in the experiment on IGROV1 ovarian, with MCF7 breast, in the experiment with OVCAR-3 ovarian, in the experiment with NCI-H522 lung and in the experiment on U251 CNS was above 100 µM each time. Further, the TGI in the experiment with OVCAR-5 ovarian, in the experiment with HS 578T breast, in the experiment with CAKI-1 renal, in the experiment on SR leukemia and in the experiment on SK-MEL-28 melanoma was above 100 µM each time.
Take `[O-][n+]1ccccc1Sc1nc(Sc2cccc[n+]2[O-])nc(Sc2cccc[n+]2[O-])n1`: the TGI came out at 2.19 µM with PC-3 prostate; 4.06 µM with MALME-3M melanoma; 3.25 µM in the experiment on UO-31 renal; 4.06 µM in the experiment on SF-539 CNS; 1.99 µM in the experiment on OVCAR-8 ovarian; 2.73 µM in the experiment on MDA-MB-231 breast. Besides, the TGI is 2.53 µM in the experiment on 786-0 renal; 3.03 µM with IGROV1 ovarian; 2.47 µM in the experiment with MCF7 breast; 6.49 µM in the experiment on OVCAR-3 ovarian; 2.23 µM in the experiment with NCI-H522 lung; 3.3 µM in the experiment on U251 CNS. Also, the TGI is 3.61 µM in the experiment with OVCAR-5 ovarian; above 100 µM in the experiment on CCRF-CEM leukemia; 10.9 µM in the experiment with HS 578T breast; 2.11 µM in the experiment with CAKI-1 renal; 2.97 µM with SR leukemia; 3.25 µM in the experiment with SK-MEL-28 melanoma.
